Peptide text beside a SMILES is read from it.

This test has as its system HLA-A24 type molecule, product of the HLA-A*2402 gene. Put plainly: Experiment of binding peptide to HLA-A24 type molecule (C1R-A24 cells, flow cytometry, Kd). Set-up: species or system human. The following applies: −log Kd value.
Procedure: After neutralization, purified β2m was added to C1R-A24 cells, and the obtained product was added to serial dilutions of a peptide, and incubated on ice for 4 hours.
Subsequently, the MHC-pep count per C1R-A24 cell (proportional to the strength of fluorescence of the above-mentioned fluorescent antibody) was quantitatively measured using an FACScan fluorescence-activated cell sorter (Becton Dickinson Biosciences). A binding dissociation constant Kd value between the HLA-A24 type molecule and the peptide was calculated from the average strength of fluorescence per cell by a published method (Udaka et al., Immunogenetics, 51, 816-828, 2000).
Take `CC[C@H](C)[C@H](NC(=O)[C@@H]1CCCN1C(=O)[C@H](CC(=O)O)NC(=O)[C@H](Cc1ccccc1)NC(=O)[C@H](CO)NC(=O)[C@H](CC(=O)O)NC(=O)[C@H](CC(C)C)NC(=O)[C@@H](NC(=O)[C@@H](N)C(C)C)[C@@H](C)CC)C(=O)O` [SEQ ID NO: 2] (H-VILDSFDPI-OH; N-terminus and C-terminus assumed): the binding experimental value came to 5.324.
The figure for `CC[C@H](C)[C@H](N)C(=O)N[C@H](C(=O)N[C@@H](Cc1ccc(O)cc1)C(=O)N[C@@H](CO)C(=O)N[C@H](C(=O)N[C@@H](Cc1ccc(O)cc1)C(=O)N[C@@H](CS)C(=O)N[C@@H](CCCCN)C(=O)N[C@@H](Cc1ccccc1)C(=O)O)[C@@H](C)O)[C@@H](C)O` [SEQ ID NO: 40] (H-ITYSTYCKF-OH; N-terminus and C-terminus assumed) is 6.975; for `CC[C@H](C)[C@H](N)C(=O)N[C@H](C(=O)N[C@@H](Cc1ccc(O)cc1)C(=O)N[C@@H](CO)C(=O)N[C@H](C(=O)N[C@@H](Cc1ccc(O)cc1)C(=O)NCC(=O)N[C@@H](CCCCN)C(=O)N[C@@H](Cc1ccccc1)C(=O)O)[C@@H](C)O)[C@@H](C)O` [SEQ ID NO: 107] (H-ITYSTYGKF-OH; N-terminus and C-terminus assumed) it is 6.374.
